The source of these data is patent US9420813B2, “Sweetener” (AJINOMOTO CO., INC., priority 2007, dated 2016).

Test [1] addresses T1, human calcium receptor (Homo sapiens, UniProt P41180).
T1 construct: expressed in transfected cells; host or cells: Xenopus laevis oocytes injected with receptor cRNA; the gene was amplified by PCR from human kidney cDNA (Clontech) and cloned in pBR322
T1 sequence (P41180 20-1078): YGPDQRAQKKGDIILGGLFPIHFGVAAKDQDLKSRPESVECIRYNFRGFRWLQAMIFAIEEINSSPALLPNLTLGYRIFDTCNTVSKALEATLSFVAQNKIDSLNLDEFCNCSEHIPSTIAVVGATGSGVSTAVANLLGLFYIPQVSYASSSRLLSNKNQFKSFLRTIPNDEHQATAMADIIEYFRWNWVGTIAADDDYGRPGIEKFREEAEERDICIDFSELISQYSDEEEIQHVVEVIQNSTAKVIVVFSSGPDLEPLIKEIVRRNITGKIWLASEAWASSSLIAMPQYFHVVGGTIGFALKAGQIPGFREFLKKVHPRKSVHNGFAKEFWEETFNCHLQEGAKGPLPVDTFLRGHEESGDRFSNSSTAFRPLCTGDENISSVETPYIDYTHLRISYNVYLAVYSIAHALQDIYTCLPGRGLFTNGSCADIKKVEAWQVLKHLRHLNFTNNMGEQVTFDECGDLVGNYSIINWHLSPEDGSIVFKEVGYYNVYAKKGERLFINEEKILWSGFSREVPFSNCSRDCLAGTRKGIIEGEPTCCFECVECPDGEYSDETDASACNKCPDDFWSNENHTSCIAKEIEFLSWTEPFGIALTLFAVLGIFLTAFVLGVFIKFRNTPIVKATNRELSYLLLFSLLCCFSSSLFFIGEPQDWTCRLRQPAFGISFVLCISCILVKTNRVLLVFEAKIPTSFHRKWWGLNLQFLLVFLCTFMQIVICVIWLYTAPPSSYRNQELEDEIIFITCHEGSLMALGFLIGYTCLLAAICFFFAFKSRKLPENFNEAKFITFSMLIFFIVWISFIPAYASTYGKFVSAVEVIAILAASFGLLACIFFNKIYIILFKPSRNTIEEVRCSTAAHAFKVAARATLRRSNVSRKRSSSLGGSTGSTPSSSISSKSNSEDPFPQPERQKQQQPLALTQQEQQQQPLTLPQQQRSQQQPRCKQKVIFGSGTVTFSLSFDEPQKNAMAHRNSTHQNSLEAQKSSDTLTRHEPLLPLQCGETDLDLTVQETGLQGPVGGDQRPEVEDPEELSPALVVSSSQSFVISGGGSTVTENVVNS
The test is described as follows: Calcium receptor-activating effect, Ca ion concentration-dependent Cl ionic current in Xenopus laevis oocyte expression system. Format: cell-based. The conditions noted are these: peptide added at 500 μM. The procedure: For evaluation of the calcium receptor-activating effect, Ca ion concentration-dependent Cl ionic current measuring method using a Xenopus laevis oocyte expression system was used. If activator is added to Xenopus laevis oocytes in which the calcium receptor is expressed, intracellular Ca ions increase. Then, the Ca ion concentration-dependent Cl channel opens, and the intracellular current value changes as an ionic current. By measuring the change in the intracellular current value, whether the calcium receptor-activating effect is present or not can be determined.
Specifically, the abdomen of Xenopus laevis was opened, and an egg batch was taken out and then treated with a 1% collagenase solution at 20° C. for 2 hours to obtain individual oocytes. Into each oocyte, 50 nl of 1 μg/μl receptor cRNA or 50 nl of sterilized water per oocyte were injected by using a micro glass capillary, and the oocytes were cultured at 18° C. for 2 to 3 days. For the culture, a solution obtained by adding 2 mM of pyruvic acid, 10 U/ml of penicillin and 10 μg/ml of streptomycin to the solution in Reference Example 2 was used. After the culture, a test solution was added to the oocytes injected with cRNA or sterilized water. Electrophysiological measurement was performed by using an amplifier Geneclamp 500 (manufactured by Axon) and recording software AxoScope 9.0 (manufactured by Axon). The oocytes were voltage-clamped at −70 mV by the double electrode voltage clamp method, and the intracellular current via the Ca ion concentration-dependent Cl ion was measured. The maximum value of the intracellular currents was defined as the response current value.
The ability of L-amino acids to activate the calcium receptor was evaluated by using the method described in Reference Example 6. That is, oocytes injected with cRNA of the calcium receptor or sterilized water were prepared, and voltage-clamped at −70 mV by the double electrode voltage clamp method. To the voltage-clamped oocytes, alanine (10 mM), arginine (10 mM), asparagine (10 mM), aspartic acid (10 mM), cysteine (10 mM), glutamine (10 mM), glutamic acid (10 mM), glycine (10 mM), histidine (10 mM), isoleucine (10 mM), leucine (10 mM), lysine (10 mM), methionine (10 mM), phenylalanine (10 mM), proline (10 mM), serine (10 mM), threonine (10 mM), tryptophan (10 mM), tyrosine (10 mM), valine (10 mM), ornithine (10 mM), taurine (10 mM) or hydroxyproline (10 mM) was added, and Ca ion concentration-dependent Cl response current was measured. […] 25, 2000, 97(9): 4814-9.
The effect of D-cysteine for activating a calcium receptor was evaluated by using the method described in Reference Example 6. That is, oocytes injected with cRNA of the calcium receptor or sterilized water were prepared, and voltage-clamped at −70 mV by the double electrode voltage clamp method. To the voltage-clamped oocytes, D-cysteine (10 mM), L-cysteine (10 mM), D-tryptophan (10 mM) or L-tryptophan (10 mM) was added, and Ca ion concentration-dependent Cl response current was measured.
The effect of peptide for activating calcium receptor was evaluated by using the method described in Reference Example 6. That is, oocytes injected with cRNA of the calcium receptor or sterilized water were prepared, and voltage-clamped at −70 mV by the double electrode voltage clamp method. To the voltage-clamped oocytes, γ-Glu-Cys-Gly (50 μM), γ-Glu-Cys(SNO)-Gly (50 μM), γ-Glu-Ala (50 μM), γ-Glu-Gly (500 μM), γ-Glu-Cys (50 μM), γ-Glu-Met (500 μM), γ-Glu-Thr (50 μM), γ-Glu-Val (50 μM), γ-Glu-Orn (500 μM), Asp-Gly (1 mM), Cys-Gly (1 mM), Cys-Met (1 mM), Glu-Cys (50 μM), Gly-Cys (500 μM) or Leu-Asp (1 mM) was added, and Ca ion concentration-dependent Cl response current was measured.
The ability of a peptide to activate calcium receptor was evaluated in the same manner as that of Reference Example 10.

Test [2] can be described thus: Quantitative sensory evaluation test, intensity of kokumi-imparting activity. The conditions noted are these: sample 0.1 g/dl; control 0, glutathione 3 points; n=3.
Method: The quantitative sensory evaluation test was performed as follows. […] When a sample is acidic when dissolved, the pH was adjusted with NaOH to pH 6.8 to 7.2 before use. Because it is known that glutathione can impart kokumi to a food, glutathione was used as a comparative control. The test was performed with n=3 based on the following sensory evaluation scores: control was given 0 points, glutathione addition was given 3 points. […] It should be noted that the term “initial and middle taste” is a collective term of the initial taste and middle taste.
The quantitative sensory evaluation test was performed as follows. […] When a sample is acidic when dissolved, the pH of the sample was adjusted with NaOH to pH 6.8 to 7.2 before use. The test was performed with n=5 based on the following sensory evaluation scores: control was given 0 point and glutathione addition was given 3 points.
The quantitative sensory evaluation test was performed as follows. […] As for a sample which is acidic when the sample is dissolved, pH of the sample was adjusted with NaOH to pH 6.8 to 7.2 before use. The test was performed with n=12 based on the following sensory evaluation scores: control: 0 point and glutathione addition: 3 points.

*1 amine or outer side, *2 acyl side, *3 side chain or, on linkers, in order; H or OH if unused. Where no end group is shown, it is not given here. [ ]: non-standard residue; d: D form. γGlu = O=C(O)[C@H](CCC(=O)[*:2])N[*:1]

Turning to [γGlu]-Met, the “effect for activating calcium receptor (Cl response current)” value in test [1] is given as “definite effect for activating calcium receptor”. Also, in test [2], the “Kokumi intensity, aftertaste” value is on record as 0.4 points; the “Kokumi intensity, initial and middle taste” value is on record as 1.5 points.
